According to patent US12077503B2, “Substituted cyclic amides and their use as herbicides” (FMC CORPORATION, priority 2015, dated 2024):

Legend:
Experiment in all cases: Test D preemergence
Assay type in all cases: in vivo
Settings in all cases: scale 0 to 100
[1] = tested on: barley, spring (spring barley, Hordeum vulgare)
Method in brief: (§1)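 Test chemicals, formulated in a non-phytotoxic solvent blend including surfactant, are applied preemergence to seeded silt loam soil. Response is judged visually against controls after approximately 21 d in a controlled environment, on a scale where 0 is no effect and 100 is complete control.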

[2] = tested on: field poppy (Papaver rhoeas)
Method in brief: as §1

[3] = tested on: oilseed rape (Brassica napus)
Method in brief: as §1

[4] = tested on: wheat, spring (spring wheat, Triticum aestivum)
Method in brief: as §1

[5] = tested on: oat, wild (wild oat, Avena fatua)
Method in brief: as §1

[6] = tested on: field violet (Viola arvensis)
Method in brief: as §1

[7] = tested on: deadnettle (henbit deadnettle, Lamium amplexicaule)
Method in brief: as §1

[8] = tested on: windgrass (Apera spica-venti)
Method in brief: as §1

[9] = tested on: canarygrass (littleseed canarygrass, Phalaris minor)
Method in brief: as §1

[10] = tested on: bromegrass, downy (downy bromegrass, Bromus tectorum)
Method in brief: as §1

[11] = tested on: lambsquarters (Chenopodium album)
Method in brief: as §1

[12] = tested on: barley, winter (winter barley Hordeum vulgare)
Method in brief: as §1

[13] = tested on: bluegrass (annual bluegrass, Poa annua)
Method in brief: as §1

[14] = tested on: blackgrass (Alopecurus myosuroides)
Method in brief: as §1

[15] = tested on: chamomile (scentless chamomile, Matricaria inodora)
Method in brief: as §1

CN1CC(c2cccc(C(F)(F)F)c2)C(C(=O)Nc2cccc(F)c2F)C1=O (stereo not drawn) [Compound 636]
Plant response rating: Barley, Spring ([1]; 31 g ai/ha): 35
Plant response rating: Barley, Spring ([1]; 62 g ai/ha): 55
Plant response rating: Barley, Spring ([1]; 125 g ai/ha): 60
Plant response rating: Barley, Spring ([1]; 250 g ai/ha): 75
Plant response rating: Field Poppy ([2]; 31 g ai/ha): 90
Plant response rating: Field Poppy ([2]; 62 g ai/ha): 95
Plant response rating: Field Poppy ([2]; 125 g ai/ha): 100
Plant response rating: Field Poppy ([2]; 250 g ai/ha): 100
Plant response rating: Oilseed Rape ([3]; 31 g ai/ha): 10
Plant response rating: Oilseed Rape ([3]; 62 g ai/ha): 30
Plant response rating: Oilseed Rape ([3]; 125 g ai/ha): 60
Plant response rating: Oilseed Rape ([3]; 250 g ai/ha): 65
Plant response rating: Wheat, Spring ([4]; 31 g ai/ha): 20
Plant response rating: Wheat, Spring ([4]; 62 g ai/ha): 40
Plant response rating: Wheat, Spring ([4]; 125 g ai/ha): 45
Plant response rating: Wheat, Spring ([4]; 250 g ai/ha): 80
Plant response rating: Oat, Wild ([5]; 31 g ai/ha): 5
Plant response rating: Oat, Wild ([5]; 62 g ai/ha): 30
Plant response rating: Oat, Wild ([5]; 125 g ai/ha): 80
Plant response rating: Oat, Wild ([5]; 250 g ai/ha): 85
Plant response rating: Field Violet ([6]; 31 g ai/ha): 0
Plant response rating: Field Violet ([6]; 62 g ai/ha): 0
Plant response rating: Field Violet ([6]; 125 g ai/ha): 35
Plant response rating: Field Violet ([6]; 250 g ai/ha): 85
Plant response rating: Deadnettle ([7]; 31 g ai/ha): 0
Plant response rating: Deadnettle ([7]; 62 g ai/ha): 35
Plant response rating: Deadnettle ([7]; 125 g ai/ha): 70
Plant response rating: Deadnettle ([7]; 250 g ai/ha): 75
Plant response rating: Windgrass ([8]; 31 g ai/ha): 85
Plant response rating: Windgrass ([8]; 62 g ai/ha): 95
Plant response rating: Windgrass ([8]; 125 g ai/ha): 95
Plant response rating: Windgrass ([8]; 250 g ai/ha): 98
Plant response rating: Canarygrass ([9]; 31 g ai/ha): 65
Plant response rating: Canarygrass ([9]; 62 g ai/ha): 85
Plant response rating: Canarygrass ([9]; 125 g ai/ha): 90
Plant response rating: Canarygrass ([9]; 250 g ai/ha): 95
Plant response rating: Bromegrass, Downy ([10]; 31 g ai/ha): 10
Plant response rating: Bromegrass, Downy ([10]; 62 g ai/ha): 20
Plant response rating: Bromegrass, Downy ([10]; 125 g ai/ha): 55
Plant response rating: Bromegrass, Downy ([10]; 250 g ai/ha): 80
Plant response rating: Lambsquarters ([11]; 31 g ai/ha): 35
Plant response rating: Lambsquarters ([11]; 62 g ai/ha): 70
Plant response rating: Lambsquarters ([11]; 125 g ai/ha): 80
Plant response rating: Lambsquarters ([11]; 250 g ai/ha): 90
Plant response rating: Barley, Winter ([12]; 31 g ai/ha): 5
Plant response rating: Barley, Winter ([12]; 62 g ai/ha): 45
Plant response rating: Barley, Winter ([12]; 125 g ai/ha): 55
Plant response rating: Barley, Winter ([12]; 250 g ai/ha): 80
Plant response rating: Bluegrass ([13]; 31 g ai/ha): 35
Plant response rating: Bluegrass ([13]; 62 g ai/ha): 95
Plant response rating: Bluegrass ([13]; 125 g ai/ha): 90
Plant response rating: Bluegrass ([13]; 250 g ai/ha): 100
Plant response rating: Blackgrass ([14]; 31 g ai/ha): 25
Plant response rating: Blackgrass ([14]; 62 g ai/ha): 30
Plant response rating: Blackgrass ([14]; 125 g ai/ha): 60
Plant response rating: Blackgrass ([14]; 250 g ai/ha): 75
Plant response rating: Chamomile ([15]; 31 g ai/ha): 90
Plant response rating: Chamomile ([15]; 62 g ai/ha): 100
Plant response rating: Chamomile ([15]; 125 g ai/ha): 100
Plant response rating: Chamomile ([15]; 250 g ai/ha): 100
